Like-named read-outs stand apart in the source and are kept apart here.
Target: T1, F508del in NIH 3T3 cells (Homo sapiens, UniProt P13569, DEL508-508)
T1 construct: expressed in transfected cells
Test: 3T3 assay: membrane potential optical assay for F508del correction
Assay type: cell-based
Details: for EC50: read-out: 3T3 EC50
Excerpt: 1. Membrane Potential Optical Methods for Assaying F508del Modulation Properties of Compounds
The assay utilizes fluorescent voltage sensing dyes to measure changes in membrane potential using a fluorescent plate reader (e.g., FLTPR III, Molecular Devices, Inc.) as a readout for increase in functional F508del in NIH 3T3 cells. The driving force for the response is the creation of a chloride ion gradient in conjunction with channel activation by a single liquid addition step after the cells have previously been treated with compounds and subsequently loaded with a voltage sensing dye.
2. Identification of Corrector Compounds
To identify correctors of F508del, a single-addition HTS assay format was developed. This HTS assay utilizes fluorescent voltage sensing dyes to measure changes in membrane potential on the FLIPR III as a measurement for increase in gating (conductance) of F508del in F508del NUT 3T3 cells. The F508del NUT 3T3 cell cultures were incubated with the corrector compounds at a range of concentrations for 18-24 hours at 37° C., and subsequently loaded with a redistribution dye. The driving force for the response is a Cl^− ion gradient in conjunction with channel activation with forskolin in a single liquid addition step using a fluorescent plate reader such as FLIPR III.
Bath Solution #1: (in mM) NaCl 160, KCl 4.5, CaCl2 2, MgCl2 1, HEPES 10, pH 7.4 with NaOH.
Chloride-free bath solution: Chloride salts in Bath Solution #1 (above) are substituted with gluconate salts.
NIH3T3 mouse fibroblasts stably expressing F508del were used for optical measurements of membrane potential. The cells were maintained at 37° C. in 5% CO2 and 90% humidity in Dulbecco's modified Eagle's medium supplemented with 2 mM glutamine, 10% fetal bovine serum, 1×NEAA, b-ME, 1×pen/strep, and 25 mM HEPES in 175 cm^2 culture flasks. For all optical assays, the cells were seeded at ˜20,000/well in 384-well Matrigel-coated plates. For the correction assays, the cells were cultured at 37° C. with and without compounds for 16-24 hours.

[1] = NIH3T3, NIH 3T3 cells, F508del, read-out: 3T3 Max Activity (%)
[2] = NIH3T3, read-out: 3T3 Max Activity (%)

T1 sequence (P13569 with tags, fused parts or gaps DEL508-508): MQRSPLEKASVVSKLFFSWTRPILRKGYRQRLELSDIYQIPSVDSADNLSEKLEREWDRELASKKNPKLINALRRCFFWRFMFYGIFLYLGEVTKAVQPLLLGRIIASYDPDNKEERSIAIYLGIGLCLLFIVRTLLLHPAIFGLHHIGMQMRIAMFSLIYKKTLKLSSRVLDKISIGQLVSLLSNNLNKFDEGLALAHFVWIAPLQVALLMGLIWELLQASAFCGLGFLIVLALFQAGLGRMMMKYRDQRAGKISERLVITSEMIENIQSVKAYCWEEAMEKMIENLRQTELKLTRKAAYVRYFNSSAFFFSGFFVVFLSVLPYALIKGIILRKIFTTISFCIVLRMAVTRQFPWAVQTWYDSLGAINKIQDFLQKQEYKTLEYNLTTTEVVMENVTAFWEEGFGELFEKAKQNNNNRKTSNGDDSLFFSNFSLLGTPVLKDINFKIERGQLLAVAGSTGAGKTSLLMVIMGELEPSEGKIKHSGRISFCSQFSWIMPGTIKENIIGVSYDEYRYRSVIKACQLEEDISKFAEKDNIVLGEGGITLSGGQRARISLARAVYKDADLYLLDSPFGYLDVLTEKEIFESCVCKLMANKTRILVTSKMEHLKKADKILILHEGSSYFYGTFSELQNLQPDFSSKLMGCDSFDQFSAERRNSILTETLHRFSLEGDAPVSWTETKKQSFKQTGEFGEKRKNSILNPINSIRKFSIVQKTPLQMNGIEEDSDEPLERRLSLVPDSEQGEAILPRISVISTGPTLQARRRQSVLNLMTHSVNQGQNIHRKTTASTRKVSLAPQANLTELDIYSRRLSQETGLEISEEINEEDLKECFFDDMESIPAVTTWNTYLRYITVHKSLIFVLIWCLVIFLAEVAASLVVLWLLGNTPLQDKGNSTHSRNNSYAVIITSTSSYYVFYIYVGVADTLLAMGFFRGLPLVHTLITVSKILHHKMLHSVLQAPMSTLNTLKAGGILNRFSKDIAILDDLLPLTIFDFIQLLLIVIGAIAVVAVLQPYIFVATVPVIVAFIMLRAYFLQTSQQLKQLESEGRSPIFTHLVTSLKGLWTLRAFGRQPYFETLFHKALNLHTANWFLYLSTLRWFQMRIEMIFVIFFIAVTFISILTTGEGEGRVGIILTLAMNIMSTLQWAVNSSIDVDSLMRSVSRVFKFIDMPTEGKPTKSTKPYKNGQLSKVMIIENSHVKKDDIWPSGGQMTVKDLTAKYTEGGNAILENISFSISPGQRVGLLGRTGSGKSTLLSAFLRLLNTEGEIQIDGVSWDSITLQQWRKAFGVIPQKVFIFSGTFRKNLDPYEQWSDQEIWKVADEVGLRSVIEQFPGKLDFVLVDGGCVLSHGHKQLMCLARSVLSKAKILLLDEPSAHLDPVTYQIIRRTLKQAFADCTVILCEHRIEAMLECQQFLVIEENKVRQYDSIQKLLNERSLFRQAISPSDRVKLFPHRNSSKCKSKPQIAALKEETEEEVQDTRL

Emax [1] [%] | EC50 (NIH 3T3 cells, F508del) [µM] | SMILES | Emax [2] [%]
< 30 | – | O=S(=O)(Nc1nc(-c2ccccc2)c(Oc2ccccc2)s1)c1ccccc1 [Compound 11, N-(5-phenoxy-4-phenyl-thiazol-2-yl)benzenesulfonamide] | –
> 60 | 1 to 3 | Cc1cc(C)c(-n2nc(NS(=O)(=O)c3ccccc3)cc2-c2ccccc2)c(C)c1 [Compound 68, N-[5-phenyl-1-(2,4,6-trimethylphenyl)pyrazol-3-yl]benzenesulfonamide] | –
> 60 | 1 to 3 | CCCc1ccc(NS(=O)(=O)c2ccccc2)nc1-c1ccc(C)cc1 [Compound 140, N-[5-propyl-6-(p-tolyl)-2-pyridyl]benzenesulfonamide] | –
30 to 60 | 1 to 3 | Cc1cccc(-c2cn(-c3cccc(Cl)c3)nc2NS(=O)(=O)c2ccccc2)c1 [Compound 94, N-[1-(3-chlorophenyl)-4-(m-tolyl)pyrazol-3-yl]benzenesulfonamide] | –
> 60 | 1 to 3 | O=S(=O)(Nc1cc(-c2ccccc2)nc(-c2ccccc2)n1)c1ccccc1 [Compound 131, N-(2,6-diphenylpyrimidin-4-yl)benzenesulfonamide] | –
30 to 60 | < 1 | COc1ccc(-c2cc(NS(=O)(=O)c3ccccc3)nn2-c2c(C)cc(C)cc2C)cc1 [Compound 59, N-[5-(4-methoxyphenyl)-1-(2,4,6-trimethylphenyl)pyrazol-3-yl]benzenesulfonamide] | –
> 60 | 1 to 3 | O=S(=O)(Nc1ncc(-c2ccccc2)nc1-c1ccccc1)c1ccccc1 [Compound 118, N-(3,5-diphenylpyrazin-2-yl)benzenesulfonamide] | –
< 30 | – | O=C(NCCOCC1CC1)c1sc(NS(=O)(=O)c2ccccc2)nc1-c1ccccc1 [Compound 37, 2-(benzenesulfonamido)-N-[2-(cyclopropylmethoxy)ethyl]-4-phenyl-thiazole-5-carboxamide] | –
30 to 60 | 3 to 30 | CC(C)Oc1nc(NS(=O)(=O)c2ccccc2)nc(-c2ccccc2)n1 [Compound 124, N-(4-isopropoxy-6-phenyl-1,3,5-triazin-2-yl)benzenesulfonamide] | –
< 30 | – | O=S(=O)(Nc1nc(C2CC2)cs1)c1ccccc1 [Compound 12, N-(4-cyclopropylthiazol-2-yl)benzenesulfonamide] | –
< 30 | – | C=C(C)c1cn(Cc2ccccc2)nc1NS(=O)(=O)c1ccccc1 [Compound 105, N-(1-benzyl-4-isopropenyl-pyrazol-3-yl)benzenesulfonamide] | –
30 to 60 | 1 to 3 | CCOC(=O)c1nc(NS(=O)(=O)c2ccccc2)sc1-c1ccccc1 [Compound 41, ethyl 2-(benzenesulfonamido)-5-phenyl-thiazole-4-carboxylate] | –
30 to 60 | 3 to 30 | Nc1cccc(S(=O)(=O)Nc2nc(Oc3ccccc3)nc(-c3ccccc3)n2)c1 [Compound 126, 3-amino-N-(4-phenoxy-6-phenyl-1,3,5-triazin-2-yl)benzenesulfonamide] | –
30 to 60 | 3 to 30 | C=C(C)c1cn(-c2cccc(Cl)c2)nc1NS(=O)(=O)c1ccccc1 [Compound 86, N-[1-(3-chlorophenyl)-4-isopropenyl-pyrazol-3-yl]benzenesulfonamide] | –
30 to 60 | 1 to 3 | Cc1nc(NS(=O)(=O)c2ccccc2)sc1-c1csc(Nc2ccccn2)n1 [Compound 30, N-[4-methyl-5-[2-(2-pyridylamino)thiazol-4-yl]thiazol-2-yl]benzenesulfonamide] | –
> 60 | 3 to 30 | COC(=O)c1sc(NS(=O)(=O)c2ccccc2)nc1-c1ccc(C)cc1 [Compound 13, methyl 2-(benzenesulfonamido)-4-(p-tolyl)thiazole-5-carboxylate] | –
< 30 | – | Cc1cccc(-c2cn(Cc3ccccc3)nc2NS(=O)(=O)c2ccccc2)c1 [Compound 114, N-[1-benzyl-4-(m-tolyl)pyrazol-3-yl]benzenesulfonamide] | –
< 30 | – | O=S(=O)(Nc1ccnn1CC1CC1)c1ccccc1 [Compound 78, N-[2-(cyclopropylmethyl)pyrazol-3-yl]benzenesulfonamide] | –

Emax [1] [%] | EC50 (NIH 3T3 cells, F508del) [µM] | SMILES | Emax [2] [%]
< 30 | – | O=S(=O)(Nc1nn(Cc2ccccc2)cc1-c1ccccc1Cl)c1ccccc1 [Compound 110, N-[1-benzyl-4-(2-chlorophenyl)pyrazol-3-yl]benzenesulfonamide] | –
< 30 | – | O=S(=O)(Nc1nn(Cc2ccccc2)cc1-c1ccccc1)c1ccccc1 [Compound 107, N-(1-benzyl-4-phenyl-pyrazol-3-yl)benzenesulfonamide] | –
30 to 60 | < 1 | Cc1cc(C)c(-n2cc(-c3ccccc3)c(NS(=O)(=O)c3ccccc3)n2)c(C)c1 [Compound 96, N-[4-phenyl-1-(2,4,6-trimethylphenyl)pyrazol-3-yl]benzenesulfonamide] | –
30 to 60 | 1 to 3 | Cc1cccc(C)c1-c1cnc(NCc2ccccc2)c(NS(=O)(=O)c2ccccc2)n1 [Compound 119, N-[3-(benzylamino)-6-(2,6-dimethylphenyl)pyrazin-2-yl]benzenesulfonamide] | –
30 to 60 | 1 to 3 | Nc1cccc(S(=O)(=O)Nc2nc(-c3ccccc3)c(Cc3ccccc3)s2)c1 [Compound 9, 3-amino-N-(5-benzyl-4-phenyl-thiazol-2-yl)benzenesulfonamide] | –
< 30 | – | Cc1ccccc1-c1cn(Cc2ccccc2)nc1NS(=O)(=O)c1ccccc1 [Compound 115] | –
30 to 60 | < 1 | CC1CN(c2cc(NS(=O)(=O)c3ccccc3)nc(Oc3ccccc3)n2)C(C)(C)C1 (centres unmarked) [Compound 128, N-[2-phenoxy-6-(2,2,4-trimethylpyrrolidin-1-yl)pyrimidin-4-yl]benzenesulfonamide] | –
30 to 60 | 1 to 3 | CCCc1sc(NS(=O)(=O)c2ccccc2)nc1-c1ccc(OCC)cc1 [Compound 19, N-[4-(4-ethoxyphenyl)-5-propyl-thiazol-2-yl]benzenesulfonamide] | –
< 30 | – | COc1cccc(-c2cn(Cc3ccccc3)nc2NS(=O)(=O)c2ccccc2)c1 [Compound 112] | –
< 30 | – | O=S(=O)(Nc1nn(-c2ccccc2)cc1-c1cccs1)c1ccccc1 [Compound 75, N-[1-phenyl-4-(2-thienyl)pyrazol-3-yl]benzenesulfonamide] | –
> 60 | 1 to 3 | Cc1ccc(-c2nc(NS(=O)(=O)c3ccccc3)cc(C)c2C)cc1C [Compound 157] | –
< 30 | – | O=S(=O)(Nc1nn(Cc2ccccc2)cc1C1=CCCCC1)c1ccccc1 [Compound 106, N-[1-benzyl-4-(cyclohexen-1-yl)pyrazol-3-yl]benzenesulfonamide] | –
< 30 | – | O=S(=O)(Nc1cc(Cc2ccccc2)n(-c2ccccc2)n1)c1ccccc1 [Compound 71, N-(5-benzyl-1-phenyl-pyrazol-3-yl)benzenesulfonamide] | –
< 30 | – | O=C(Nc1ccccc1)c1sc(NS(=O)(=O)c2ccccc2)nc1-c1ccccc1 [Compound 33, N,4-diphenyl-2-(phenylsulfonamido)thiazole-5-carboxamide] | –
< 30 | – | CC(C)Cc1cn(-c2ccccc2)nc1NS(=O)(=O)c1ccccc1 [Compound 82, N-(4-isobutyl-1-phenyl-pyrazol-3-yl)benzenesulfonamide] | –
30 to 60 | 3 to 30 | CC(C)=Cc1cn(-c2cccc(Cl)c2)nc1NS(=O)(=O)c1ccccc1 [Compound 85, N-[1-(3-chlorophenyl)-4-(2-methylprop-1-enyl)pyrazol-3-yl]benzenesulfonamide] | –
> 60 | < 1 | Cc1cc(C)c(-n2nc(NS(=O)(=O)c3ccccc3)cc2-c2ccccc2C)c(C)c1 [Compound 62] | –

SMILES | Emax [1] [%] | EC50 (NIH 3T3 cells, F508del) [µM] | Emax [2] [%]
O=S(=O)(Nc1nn(-c2cccc(Cl)c2)cc1-c1ccccc1)c1ccccc1 [Compound 69, N-[1-(3-chlorophenyl)-4-phenyl-pyrazol-3-yl]benzenesulfonamide] | – | 1 to 3 | 30 to 60
Cc1ccc(-c2nc(NS(=O)(=O)c3ccccc3)sc2-c2ccc(C)cc2)cc1 [Compound 10, N-[4,5-bis(p-tolyl)thiazol-2-yl]benzenesulfonamide] | – | < 1 | 30 to 60
Cc1ccc(C)c(-c2nc(NS(=O)(=O)c3ccccc3)sc2C)c1 [Compound 8, N-[4-(2,5-dimethylphenyl)-5-methyl-thiazol-2-yl]benzenesulfonamide] | – | < 1 | > 60
CCCc1sc(NS(=O)(=O)c2ccccc2)nc1-c1ccc(C)cc1C [Compound 6, N-[4-(2,4-dimethylphenyl)-5-propyl-thiazol-2-yl]benzenesulfonamide] | – | < 1 | > 60
CCCc1sc(NS(=O)(=O)c2ccccc2)nc1-c1ccc(C)cc1 [Compound 5, N-[5-propyl-4-(p-tolyl)thiazol-2-yl]benzenesulfonamide] | – | < 1 | > 60
